# The source made the active and inactive calls.
# Legend:
# Genome polyprotein = Genome polyprotein (dengue virus type 2, UniProt P29990); assay: Dengue-2 NS5 methyltransferase inhibitors, primary screen, biochemical, confirmation dose response (AID 588689); type: functional
# [1] = THP-1 cell cytotoxicity, dose response, cytotoxicity control for Vif-APOBEC3G degradation inhibitor project, THP-1 cells (AID 1117359); type: functional; settings: Human immunodeficiency virus 1, THP-1
# Protein RecA = biological target: T1, Protein RecA (Mycobacterium tuberculosis, UniProt P9WHJ3); assay: Fluorescence Cell-Free Homogeneous Dose Retest to Identify Inhibitors of RecA-Intein Splicing Activity. [Related pubchem assays (depositor defined):AID2097, AID2223, AID489010, AID492950]; type: functional
# T1 sequence (P9WHJ3 whole entry): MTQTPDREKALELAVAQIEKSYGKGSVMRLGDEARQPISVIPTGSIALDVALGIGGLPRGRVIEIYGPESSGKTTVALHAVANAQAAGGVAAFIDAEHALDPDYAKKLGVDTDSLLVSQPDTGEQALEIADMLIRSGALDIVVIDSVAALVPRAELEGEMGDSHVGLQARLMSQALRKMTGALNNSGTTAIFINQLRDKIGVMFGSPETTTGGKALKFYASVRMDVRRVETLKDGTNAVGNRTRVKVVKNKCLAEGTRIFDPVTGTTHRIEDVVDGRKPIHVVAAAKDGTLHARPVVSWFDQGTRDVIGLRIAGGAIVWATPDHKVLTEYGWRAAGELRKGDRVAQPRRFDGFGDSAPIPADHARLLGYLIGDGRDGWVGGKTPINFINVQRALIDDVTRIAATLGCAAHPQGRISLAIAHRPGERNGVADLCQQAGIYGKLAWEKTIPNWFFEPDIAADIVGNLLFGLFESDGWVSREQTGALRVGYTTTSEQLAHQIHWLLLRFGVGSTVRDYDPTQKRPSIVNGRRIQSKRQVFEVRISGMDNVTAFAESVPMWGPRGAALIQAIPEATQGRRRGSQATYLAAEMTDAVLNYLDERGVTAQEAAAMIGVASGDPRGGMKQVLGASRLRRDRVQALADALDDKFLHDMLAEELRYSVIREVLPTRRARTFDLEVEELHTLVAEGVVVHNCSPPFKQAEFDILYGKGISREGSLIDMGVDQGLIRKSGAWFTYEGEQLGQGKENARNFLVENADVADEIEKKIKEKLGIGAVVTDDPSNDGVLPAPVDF
# Caspase-6 = biological target: T2, Caspase-6 (Homo sapiens, UniProt P55212); assay: human caspase-6 inhibitors, dose response, biochemical, VEID-R110 fluorescence, cherry-pick (AID 720632)
# T2 sequence (P55212 whole entry): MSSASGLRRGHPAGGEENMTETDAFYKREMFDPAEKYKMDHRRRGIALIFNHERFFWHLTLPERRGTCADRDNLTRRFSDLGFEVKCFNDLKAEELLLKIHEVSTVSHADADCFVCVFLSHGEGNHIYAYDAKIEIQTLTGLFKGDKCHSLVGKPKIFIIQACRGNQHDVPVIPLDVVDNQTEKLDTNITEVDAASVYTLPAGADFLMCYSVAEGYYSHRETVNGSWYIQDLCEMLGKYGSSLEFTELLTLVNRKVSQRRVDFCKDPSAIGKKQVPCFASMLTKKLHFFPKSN
# [2] = biological target: Fibroblast growth factor receptor 1 (Homo sapiens, UniProt P11362); type: functional
# Sequence of Fibroblast growth factor receptor 1 (P11362 whole entry): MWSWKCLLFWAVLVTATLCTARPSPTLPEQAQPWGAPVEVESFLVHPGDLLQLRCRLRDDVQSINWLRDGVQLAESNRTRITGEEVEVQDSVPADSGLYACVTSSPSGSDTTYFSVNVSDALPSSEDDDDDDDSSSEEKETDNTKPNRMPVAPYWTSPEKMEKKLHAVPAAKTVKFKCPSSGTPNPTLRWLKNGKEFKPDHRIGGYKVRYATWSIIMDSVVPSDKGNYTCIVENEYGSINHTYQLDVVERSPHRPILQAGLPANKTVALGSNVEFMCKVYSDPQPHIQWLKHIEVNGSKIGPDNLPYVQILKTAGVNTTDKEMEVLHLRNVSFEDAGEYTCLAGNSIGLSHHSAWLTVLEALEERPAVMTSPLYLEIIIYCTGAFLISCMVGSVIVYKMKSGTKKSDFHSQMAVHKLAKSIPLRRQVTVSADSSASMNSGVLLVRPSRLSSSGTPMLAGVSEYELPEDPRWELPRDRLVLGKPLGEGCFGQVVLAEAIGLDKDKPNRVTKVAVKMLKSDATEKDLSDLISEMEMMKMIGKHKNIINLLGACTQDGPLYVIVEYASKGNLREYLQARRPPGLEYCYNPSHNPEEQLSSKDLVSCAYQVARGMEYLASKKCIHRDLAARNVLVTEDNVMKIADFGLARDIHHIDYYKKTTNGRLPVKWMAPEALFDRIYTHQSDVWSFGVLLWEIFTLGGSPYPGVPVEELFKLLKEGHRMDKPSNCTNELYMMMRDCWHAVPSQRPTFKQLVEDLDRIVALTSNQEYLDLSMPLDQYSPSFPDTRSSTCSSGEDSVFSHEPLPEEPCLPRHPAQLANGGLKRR
# [3] = biological target: Cyclin-dependent kinase 9 (Homo sapiens, UniProt P50750); type: functional;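 note: value from the CDK9 entry of a kinome-spanning kinase panel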
# [4] = biological target: Glycogen synthase kinase-3 beta (Homo sapiens, UniProt P49841); type: functional;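 note: value comes from a broad kinome profiling panel, with GSK3B as the panel member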
# Focal adhesion kinase 1 = Focal adhesion kinase 1 (Homo sapiens, UniProt Q05397); type: functional;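 note: measured as one member of a kinome panel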
# Sequence of Focal adhesion kinase 1 (Q05397 whole entry): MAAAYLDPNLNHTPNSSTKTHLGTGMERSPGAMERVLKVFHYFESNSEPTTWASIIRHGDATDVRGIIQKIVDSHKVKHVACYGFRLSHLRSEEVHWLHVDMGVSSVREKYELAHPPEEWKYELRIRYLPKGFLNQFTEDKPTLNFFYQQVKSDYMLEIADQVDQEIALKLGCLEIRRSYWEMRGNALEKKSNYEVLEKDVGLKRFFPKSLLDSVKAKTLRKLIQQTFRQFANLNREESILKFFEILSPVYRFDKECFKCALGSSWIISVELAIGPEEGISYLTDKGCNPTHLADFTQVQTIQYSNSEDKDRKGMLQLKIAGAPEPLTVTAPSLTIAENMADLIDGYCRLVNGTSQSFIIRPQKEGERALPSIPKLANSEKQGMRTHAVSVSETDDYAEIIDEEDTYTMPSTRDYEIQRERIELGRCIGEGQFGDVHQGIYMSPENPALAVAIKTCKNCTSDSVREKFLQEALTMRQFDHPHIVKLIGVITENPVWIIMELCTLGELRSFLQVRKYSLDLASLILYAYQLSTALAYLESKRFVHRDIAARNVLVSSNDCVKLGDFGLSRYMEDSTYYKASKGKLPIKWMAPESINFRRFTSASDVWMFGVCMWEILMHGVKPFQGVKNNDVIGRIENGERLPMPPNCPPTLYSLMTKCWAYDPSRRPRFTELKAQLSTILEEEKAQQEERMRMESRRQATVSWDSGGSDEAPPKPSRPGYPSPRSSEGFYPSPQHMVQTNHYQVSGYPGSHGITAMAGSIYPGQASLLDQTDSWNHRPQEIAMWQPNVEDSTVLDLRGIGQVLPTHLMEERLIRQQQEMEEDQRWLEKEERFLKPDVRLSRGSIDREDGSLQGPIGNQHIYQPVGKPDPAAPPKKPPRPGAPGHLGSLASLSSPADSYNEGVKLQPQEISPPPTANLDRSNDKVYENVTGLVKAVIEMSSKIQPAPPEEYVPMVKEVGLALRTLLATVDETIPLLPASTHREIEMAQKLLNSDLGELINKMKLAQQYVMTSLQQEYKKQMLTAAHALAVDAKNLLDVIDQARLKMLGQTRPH
# Aurora kinase B = Aurora kinase B (Homo sapiens, UniProt Q96GD4); type: functional
# Sequence of Aurora kinase B (Q96GD4 whole entry): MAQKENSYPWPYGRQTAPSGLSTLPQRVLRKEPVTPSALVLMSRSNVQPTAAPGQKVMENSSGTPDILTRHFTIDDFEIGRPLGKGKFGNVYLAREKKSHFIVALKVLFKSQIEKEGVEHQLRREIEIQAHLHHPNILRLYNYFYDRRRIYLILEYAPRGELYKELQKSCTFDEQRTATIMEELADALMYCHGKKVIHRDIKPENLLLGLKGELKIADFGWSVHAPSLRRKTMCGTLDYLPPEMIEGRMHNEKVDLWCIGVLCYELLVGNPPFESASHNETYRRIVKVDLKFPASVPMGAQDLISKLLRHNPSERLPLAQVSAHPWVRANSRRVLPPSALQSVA
# [5] = biological target: Vascular endothelial growth factor receptor 1 (Homo sapiens, UniProt P17948); type: functional;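 note: measured within a kinome-wide profiling panel, FLT1 as the panel member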
# [6] = biological target: Dual specificity mitogen-activated protein kinase kinase 2 (Homo sapiens, UniProt P36507); assay: Navigating the Kinome. Panel member name: MAP2K2; type: functional
# Sequence of Dual specificity mitogen-activated protein kinase kinase 2 (P36507 whole entry): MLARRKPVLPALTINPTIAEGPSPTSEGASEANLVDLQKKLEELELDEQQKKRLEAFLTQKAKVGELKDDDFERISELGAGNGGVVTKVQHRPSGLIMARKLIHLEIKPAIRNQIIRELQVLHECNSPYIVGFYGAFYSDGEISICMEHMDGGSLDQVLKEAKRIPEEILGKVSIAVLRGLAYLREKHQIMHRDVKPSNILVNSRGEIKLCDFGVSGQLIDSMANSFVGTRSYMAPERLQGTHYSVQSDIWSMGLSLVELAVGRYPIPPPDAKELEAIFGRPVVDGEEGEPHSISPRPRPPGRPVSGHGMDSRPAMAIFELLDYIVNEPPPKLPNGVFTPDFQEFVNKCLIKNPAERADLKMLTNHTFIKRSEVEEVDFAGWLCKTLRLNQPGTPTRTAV
# [7] = biological target: Vascular endothelial growth factor receptor 2 (Homo sapiens, UniProt P35968); type: functional
# Sequence of Vascular endothelial growth factor receptor 2 (P35968 whole entry): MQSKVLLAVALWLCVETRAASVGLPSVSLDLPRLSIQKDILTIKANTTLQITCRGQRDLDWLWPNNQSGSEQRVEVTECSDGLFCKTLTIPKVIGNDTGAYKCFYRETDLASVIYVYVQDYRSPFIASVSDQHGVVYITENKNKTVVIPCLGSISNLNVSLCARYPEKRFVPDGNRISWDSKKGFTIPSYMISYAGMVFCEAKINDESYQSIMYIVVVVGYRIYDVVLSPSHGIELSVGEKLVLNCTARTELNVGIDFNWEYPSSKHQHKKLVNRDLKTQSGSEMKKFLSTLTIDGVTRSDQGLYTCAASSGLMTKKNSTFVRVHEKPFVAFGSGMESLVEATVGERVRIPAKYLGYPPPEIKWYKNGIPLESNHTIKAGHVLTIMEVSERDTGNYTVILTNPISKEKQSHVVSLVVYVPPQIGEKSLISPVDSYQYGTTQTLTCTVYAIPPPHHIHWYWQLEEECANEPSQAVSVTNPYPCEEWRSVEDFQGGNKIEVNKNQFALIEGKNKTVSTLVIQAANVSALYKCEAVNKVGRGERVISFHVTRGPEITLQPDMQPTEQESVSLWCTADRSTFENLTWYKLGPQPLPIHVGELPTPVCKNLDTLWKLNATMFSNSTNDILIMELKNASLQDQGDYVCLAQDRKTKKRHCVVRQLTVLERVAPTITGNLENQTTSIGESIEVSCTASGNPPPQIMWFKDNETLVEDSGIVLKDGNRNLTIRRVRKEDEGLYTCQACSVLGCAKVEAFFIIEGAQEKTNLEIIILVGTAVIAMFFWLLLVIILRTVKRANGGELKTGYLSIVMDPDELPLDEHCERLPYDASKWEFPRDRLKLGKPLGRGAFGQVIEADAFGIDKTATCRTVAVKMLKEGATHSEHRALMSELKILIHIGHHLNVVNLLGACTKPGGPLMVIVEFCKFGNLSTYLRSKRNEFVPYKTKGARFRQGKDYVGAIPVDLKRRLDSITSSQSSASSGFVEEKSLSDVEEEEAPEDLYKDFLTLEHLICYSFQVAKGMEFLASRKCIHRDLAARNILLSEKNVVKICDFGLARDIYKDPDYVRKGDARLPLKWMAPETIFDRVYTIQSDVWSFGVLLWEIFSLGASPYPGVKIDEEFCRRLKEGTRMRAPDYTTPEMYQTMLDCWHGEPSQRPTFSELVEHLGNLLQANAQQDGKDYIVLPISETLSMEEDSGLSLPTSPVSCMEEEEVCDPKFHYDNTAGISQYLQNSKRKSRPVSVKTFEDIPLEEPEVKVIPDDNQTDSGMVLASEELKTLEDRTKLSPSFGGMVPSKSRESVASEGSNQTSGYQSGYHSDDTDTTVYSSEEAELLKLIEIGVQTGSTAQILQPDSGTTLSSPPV
# [8] = biological target: Calcium/calmodulin-dependent protein kinase type II subunit alpha (Homo sapiens, UniProt Q9UQM7); assay: Navigating the Kinome. Panel member name: CAMK2A; type: functional
# Sequence of Calcium/calmodulin-dependent protein kinase type II subunit alpha (Q9UQM7 whole entry): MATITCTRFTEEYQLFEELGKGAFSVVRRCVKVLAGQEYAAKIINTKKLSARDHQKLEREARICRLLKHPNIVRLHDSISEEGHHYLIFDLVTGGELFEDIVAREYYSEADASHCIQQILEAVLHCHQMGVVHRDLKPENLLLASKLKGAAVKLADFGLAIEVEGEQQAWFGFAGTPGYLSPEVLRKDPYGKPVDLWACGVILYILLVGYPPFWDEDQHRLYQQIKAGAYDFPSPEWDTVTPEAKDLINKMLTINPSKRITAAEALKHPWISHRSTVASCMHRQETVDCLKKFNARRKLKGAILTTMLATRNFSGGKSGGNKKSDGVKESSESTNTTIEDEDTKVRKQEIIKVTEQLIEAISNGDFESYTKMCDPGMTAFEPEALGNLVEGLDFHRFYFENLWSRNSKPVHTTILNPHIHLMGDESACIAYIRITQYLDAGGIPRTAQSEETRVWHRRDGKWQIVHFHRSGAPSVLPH
# [9] = biological target: T3, Alkaline phosphatase, tissue-nonspecific isozyme (Homo sapiens, UniProt P05186); assay: TNAP enzyme activators, dose response, selectivity assay for mouse IAP activator project, biochemical, TNAP isozyme, mouse IAP uHTS hits (AID 488880); type: functional
# T3 sequence (P05186 whole entry): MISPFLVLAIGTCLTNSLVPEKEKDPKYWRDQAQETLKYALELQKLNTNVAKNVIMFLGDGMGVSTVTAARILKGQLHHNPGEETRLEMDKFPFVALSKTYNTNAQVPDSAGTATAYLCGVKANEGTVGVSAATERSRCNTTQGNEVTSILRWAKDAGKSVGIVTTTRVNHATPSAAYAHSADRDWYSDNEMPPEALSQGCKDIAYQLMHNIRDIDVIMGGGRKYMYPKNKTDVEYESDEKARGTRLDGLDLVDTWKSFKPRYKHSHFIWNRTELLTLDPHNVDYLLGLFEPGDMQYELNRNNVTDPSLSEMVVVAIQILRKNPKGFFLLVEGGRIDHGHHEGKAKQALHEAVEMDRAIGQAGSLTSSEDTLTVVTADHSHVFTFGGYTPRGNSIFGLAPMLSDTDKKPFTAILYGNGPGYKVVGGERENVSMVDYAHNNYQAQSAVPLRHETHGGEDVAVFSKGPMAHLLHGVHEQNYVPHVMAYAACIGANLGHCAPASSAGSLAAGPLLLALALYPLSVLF
# [10] = biological target: T4, RNA-binding protein pos-1 (Caenorhabditis elegans, UniProt G5EF15); assay: inhibitors of POS-1/mex-3 RNA binding, dose response, biochemical, fluorescence polarization (AID 1964);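 note: purified POS-1 fused to maltose binding protein made in E. coli; potency of compounds blocking POS-1 binding to fluorescent RNA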
# T4 sequence (G5EF15 whole entry): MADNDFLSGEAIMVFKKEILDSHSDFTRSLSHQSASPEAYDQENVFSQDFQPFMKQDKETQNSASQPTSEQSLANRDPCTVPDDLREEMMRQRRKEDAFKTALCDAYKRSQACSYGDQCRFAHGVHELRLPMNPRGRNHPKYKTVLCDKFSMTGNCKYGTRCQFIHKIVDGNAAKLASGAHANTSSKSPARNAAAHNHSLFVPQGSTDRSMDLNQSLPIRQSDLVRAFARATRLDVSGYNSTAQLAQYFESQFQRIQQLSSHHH
# Albumin = Albumin (Bos taurus, UniProt P02769); assay: Counterscreen for inhibitors of T-cell receptor (TCR)-CD3 interaction: Fluorescence-based biochemical high throughput dose response assay to identify inhibitors of T-cell receptor (TCR)-CD3 interaction using a TAMRA-labeled BSA probe.; type: functional
# [11] = biological target: Intestinal-type alkaline phosphatase (Mus musculus, UniProt P24822); assay: mouse intestinal alkaline phosphatase activators, dose response, biochemical, luminescence, uHTS hits (AID 488783); type: functional
# Sequence of Intestinal-type alkaline phosphatase (P24822 whole entry): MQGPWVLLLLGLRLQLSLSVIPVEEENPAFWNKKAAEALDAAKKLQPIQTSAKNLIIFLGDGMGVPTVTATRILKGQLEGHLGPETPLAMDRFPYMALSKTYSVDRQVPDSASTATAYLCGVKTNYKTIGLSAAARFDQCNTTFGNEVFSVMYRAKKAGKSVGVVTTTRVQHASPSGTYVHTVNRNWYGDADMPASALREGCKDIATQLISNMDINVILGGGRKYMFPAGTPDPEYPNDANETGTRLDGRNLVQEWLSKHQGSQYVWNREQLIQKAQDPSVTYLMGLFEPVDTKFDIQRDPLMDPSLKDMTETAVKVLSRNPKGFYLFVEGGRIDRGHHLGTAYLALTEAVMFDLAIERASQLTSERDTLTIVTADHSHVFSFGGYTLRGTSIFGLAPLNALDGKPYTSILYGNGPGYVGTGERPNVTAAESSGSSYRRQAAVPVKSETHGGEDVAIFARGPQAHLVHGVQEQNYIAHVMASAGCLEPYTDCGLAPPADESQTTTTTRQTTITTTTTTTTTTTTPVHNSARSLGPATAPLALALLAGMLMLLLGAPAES
smiles,measurement,setting,value
CC(=O)N(C1=C(Cl)C(=O)c2ccccc2C1=O)c1ccc(C(=O)O)cc1,IC50,Genome polyprotein,5.89 µM (active)
same,CC50,[1],32.4 µM (active)
CC1(C)C=C2C(=NN(c3ccccc3)C(N)=C2C#N)CO1,EC50,Protein RecA,0.297 µM (active)
same,AC50,Caspase-6,1.07 µM (active)
Cc1ccc(-c2cc3nc(Br)cnc3[nH]2)cc1,Ki,[2],> 3.98 µM (inactive)
same,Ki,[3],> 1.58 µM (inactive)
same,Ki,[4],> 3.98 µM (inactive)
same,Ki,Focal adhesion kinase 1,> 6.31 µM (inactive)
same,Ki,Aurora kinase B,0.794 µM (active)
same,Ki,[5],> 3.98 µM (inactive)
same,Ki,[6],> 3.98 µM (inactive)
same,Ki,[7],1.26 µM (active)
same,Ki,[8],> 7.94 µM (inactive)
O=C1C=C(O)c2c(O)cc(O)c(O)c2C1=O,EC50,[9],> 100 µM (inactive)
same,EC50,[10],1.07 µM (inconclusive)
same,IC50,Albumin,> 94.1 µM (inactive)
same,EC50,[11],9.93 µM (active)

# Source: ChEMBL document CHEMBL1201862, “PubChem BioAssay data set” (2004)
